{"source": "ChEMBL document CHEMBL4184210", "about": "“Optimization of novel monobactams with activity against carbapenem-resistant Enterobacteriaceae - Identification of LYS228” (Bioorg Med Chem Lett, 2018)", "key": {"Escherichia coli [1]": {"system": "Escherichia coli", "assay": "Antimicrobial activity against Escherichia coli expressing beta-lactamase KPC-2 by CLSI broth microdilution method", "type": "functional"}, "Escherichia coli [2]": {"system": "Escherichia coli", "assay": "microbe, parasite or virus in culture", "description": "Antimicrobial activity against Escherichia coli expressing beta-lactamase TEM-24 by CLSI broth microdilution method"}, "Escherichia coli [3]": {"system": "Escherichia coli", "assay": "microbe, parasite or virus in culture", "remark": "listed apart in the source", "description": "Antimicrobial activity against Escherichia coli expressing beta-lactamase Oxa-225 by CLSI broth microdilution method"}, "Escherichia coli [4]": {"system": "Escherichia coli", "assay": "microbe, parasite or virus in culture", "remark": "listed apart in the source", "description": "Antimicrobial activity against Escherichia coli expressing beta-lactamase PER-2 by CLSI broth microdilution method"}, "Escherichia coli [5]": {"system": "Escherichia coli", "assay": "microbe, parasite or virus in culture", "remark": "listed apart in the source", "description": "Antimicrobial activity against Escherichia coli expressing beta-lactamase TEM-47 by CLSI broth microdilution method"}, "Escherichia coli [6]": {"system": "Escherichia coli", "assay": "Antimicrobial activity against Escherichia coli expressing beta-lactamase NDM-1 by CLSI broth microdilution method", "type": "functional"}, "[7]": {"target": "T1, GABA A receptor alpha-2/beta-2/gamma-2 (Homo sapiens, UniProt P18507+P47869+P47870)", "T1 sequence (P47870 whole entry)": "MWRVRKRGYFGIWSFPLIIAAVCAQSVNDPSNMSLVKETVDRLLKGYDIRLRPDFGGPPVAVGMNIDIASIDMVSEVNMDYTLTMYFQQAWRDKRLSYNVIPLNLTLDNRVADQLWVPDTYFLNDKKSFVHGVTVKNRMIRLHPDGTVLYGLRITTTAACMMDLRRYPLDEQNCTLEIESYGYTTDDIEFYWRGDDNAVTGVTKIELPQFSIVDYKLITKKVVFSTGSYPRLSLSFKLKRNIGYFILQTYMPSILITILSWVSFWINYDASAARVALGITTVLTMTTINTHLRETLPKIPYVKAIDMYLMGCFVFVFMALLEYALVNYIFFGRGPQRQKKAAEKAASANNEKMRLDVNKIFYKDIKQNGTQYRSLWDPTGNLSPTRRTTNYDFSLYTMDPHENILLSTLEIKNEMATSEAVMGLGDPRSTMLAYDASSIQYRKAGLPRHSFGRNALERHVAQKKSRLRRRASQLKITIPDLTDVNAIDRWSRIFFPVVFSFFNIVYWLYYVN", "T1 sequence (P18507 whole entry)": "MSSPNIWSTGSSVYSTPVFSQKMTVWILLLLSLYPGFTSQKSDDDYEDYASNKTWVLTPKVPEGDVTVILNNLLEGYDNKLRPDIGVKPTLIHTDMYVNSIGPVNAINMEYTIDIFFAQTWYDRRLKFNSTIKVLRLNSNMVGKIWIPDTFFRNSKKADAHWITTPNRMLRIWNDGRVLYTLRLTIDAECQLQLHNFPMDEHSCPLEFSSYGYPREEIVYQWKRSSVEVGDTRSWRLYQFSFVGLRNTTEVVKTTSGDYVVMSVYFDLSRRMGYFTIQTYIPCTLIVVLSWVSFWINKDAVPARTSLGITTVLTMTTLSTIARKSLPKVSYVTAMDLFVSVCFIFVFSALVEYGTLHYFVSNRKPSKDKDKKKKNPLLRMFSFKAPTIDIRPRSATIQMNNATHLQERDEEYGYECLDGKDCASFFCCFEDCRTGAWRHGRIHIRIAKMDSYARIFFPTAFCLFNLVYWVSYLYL", "T1 sequence (P47869 whole entry)": "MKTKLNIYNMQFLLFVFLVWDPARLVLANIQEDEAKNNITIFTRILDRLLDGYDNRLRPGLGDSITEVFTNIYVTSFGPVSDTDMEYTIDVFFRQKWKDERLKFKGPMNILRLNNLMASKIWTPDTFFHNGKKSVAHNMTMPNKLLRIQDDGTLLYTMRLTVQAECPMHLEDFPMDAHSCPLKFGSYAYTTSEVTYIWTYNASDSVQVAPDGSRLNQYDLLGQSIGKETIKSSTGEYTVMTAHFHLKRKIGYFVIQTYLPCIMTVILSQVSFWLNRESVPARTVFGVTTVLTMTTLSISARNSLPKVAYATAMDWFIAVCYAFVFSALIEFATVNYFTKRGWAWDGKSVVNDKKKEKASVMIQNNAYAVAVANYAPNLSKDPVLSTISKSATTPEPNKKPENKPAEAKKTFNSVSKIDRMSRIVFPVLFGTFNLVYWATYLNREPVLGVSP", "assay": "Inhibition of recombinant human GABA A alpha2beta2gamma2 receptor expressed in CHO-K1 cells incubated at room temperature for 15 mins before the GABA addition fluorescence spectrometry", "type": "cell-based"}, "Mus musculus": {"system": "Mus musculus", "assay": "Toxicity in CD1 mouse assessed as induction of convulsion at 100 mg/kg, icv measured 1 hr after post dose", "type": "organism-based", "settings": "in vivo, icv_or_intrathecal"}, "[8]": {"assay": "Clearance in mouse at 10 mg/kg, iv", "type": "ADME, organism-based", "settings": "in vivo"}, "Klebsiella pneumoniae [9]": {"system": "Klebsiella pneumoniae", "assay": "Antimicrobial activity against Klebsiella pneumoniae expressing beta-lactamase NDM-1 by CLSI broth microdilution method", "type": "functional"}, "[10]": {"assay": "Drug excretion in rat assessed as unchanged parent drug level at 10 mg/kg, iv", "type": "ADME, organism-based", "settings": "in vivo, read-out: Drug excretion"}, "[11]": {"assay": "Volume of distribution in mouse at 10 mg/kg, iv", "type": "ADME, organism-based", "settings": "in vivo"}, "in vitro [12]": {"assay": "in vitro", "settings": "rat, plasma", "description": "Protein binding in rat plasma"}, "[13]": {"assay": "AUC in rat at 10 mg/kg, iv", "type": "ADME, organism-based", "settings": "in vivo"}, "in vitro [14]": {"assay": "in vitro", "settings": "mouse, plasma", "description": "Protein binding in mouse plasma"}, "[15]": {"assay": "Volume of distribution in rat at 10 mg/kg, iv", "type": "ADME, organism-based", "settings": "in vivo"}, "[16]": {"assay": "Stability assessed as assessed as Escherichia coli beta-lactamase KPC-2-mediated compound hydrolysis by measuring molar enthalpy of hydrolysis at 1 mM by isothermal titration calorimetry", "type": "ADME", "settings": "1000 µM"}, "[17]": {"assay": "Clearance in dog at 10 mg/kg, iv", "type": "ADME, organism-based, Canis lupus familiaris", "settings": "in vivo"}, "in vitro [18]": {"assay": "in vitro", "settings": "human, plasma", "description": "Protein binding in human plasma"}, "Klebsiella pneumoniae [19]": {"system": "Klebsiella pneumoniae", "assay": "Antimicrobial activity against Klebsiella pneumoniae expressing beta-lactamase NDM-1 infected in neutropenic mouse thigh infection model assessed as fT>MIC for causing 1 log10 CFU reduction in bacterial load dosed subcutaneously every 4 hrs", "type": "functional"}, "[20]": {"assay": "Clearance in rat at 10 mg/kg, iv", "type": "ADME, organism-based", "settings": "in vivo"}, "[21]": {"assay": "AUC in dog at 10 mg/kg, iv", "type": "ADME, organism-based, Canis lupus familiaris", "settings": "in vivo"}, "[22]": {"assay": "Drug excretion in dog assessed as unchanged parent drug level at 10 mg/kg, iv", "type": "ADME, organism-based, Canis lupus familiaris", "settings": "in vivo, read-out: Drug excretion"}, "[23]": {"assay": "Volume of distribution in dog at 10 mg/kg, iv", "type": "ADME, organism-based, Canis lupus familiaris", "settings": "in vivo"}, "[24]": {"assay": "AUC in mouse at 10 mg/kg, iv", "type": "ADME, organism-based", "settings": "in vivo"}, "Klebsiella pneumoniae [25]": {"system": "Klebsiella pneumoniae", "assay": "Antimicrobial activity against Klebsiella pneumoniae expressing beta-lactamase NDM-1 infected in neutropenic mouse thigh infection model assessed as compound dose causing 1 log10 CFU reduction in bacterial load dosed subcutaneously every 4 hrs", "type": "functional"}, "[26]": {"assay": "Half life in mouse at 10 mg/kg, iv", "type": "ADME, organism-based", "settings": "in vivo"}, "in vitro [27]": {"assay": "in vitro", "settings": "dog, plasma", "description": "Protein binding in dog plasma"}, "[28]": {"assay": "Half life in rat at 10 mg/kg, iv", "type": "ADME, organism-based", "settings": "in vivo"}, "[29]": {"assay": "Half life in dog at 10 mg/kg, iv", "type": "ADME, organism-based, Canis lupus familiaris", "settings": "in vivo"}}}
{"smiles": "N=C(N)NCc1cn(C[C@@H]2[C@H](NC(=O)/C(=N\\OC3(C(=O)O)CC3)c3csc(N)n3)C(=O)N2S(=O)(=O)O)nn1", "note": "(stereo in doubt)", "values": [{"measurement": "MIC", "setting": "Escherichia coli [1]", "value": 0.125, "unit": "µg/mL"}, {"measurement": "MIC", "setting": "Escherichia coli [2]", "value": 0.25, "unit": "µg/mL"}, {"measurement": "MIC", "setting": "Escherichia coli [3]", "value": 0.25, "unit": "µg/mL"}, {"measurement": "MIC", "setting": "Escherichia coli [4]", "value": "> 64", "unit": "µg/mL"}, {"measurement": "MIC", "setting": "Escherichia coli [5]", "value": 0.25, "unit": "µg/mL"}, {"measurement": "MIC", "setting": "Escherichia coli [6]", "value": 0.125, "unit": "µg/mL"}, {"measurement": "IC50", "setting": "[7]", "value": 890, "unit": "µM"}]}
{"smiles": "N=C(N)NCc1cnn(C[C@@H]2[C@H](NC(=O)/C(=N\\OC3(C(=O)O)CC3)c3csc(N)n3)C(=O)N2S(=O)(=O)O)n1", "note": "(stereo in doubt)", "values": [{"measurement": "MIC", "setting": "Escherichia coli [1]", "value": 0.125, "unit": "µg/mL"}, {"measurement": "MIC", "setting": "Escherichia coli [2]", "value": 0.25, "unit": "µg/mL"}, {"measurement": "MIC", "setting": "Escherichia coli [3]", "value": 0.25, "unit": "µg/mL"}, {"measurement": "MIC", "setting": "Escherichia coli [4]", "value": "> 64", "unit": "µg/mL"}, {"measurement": "MIC", "setting": "Escherichia coli [5]", "value": 0.125, "unit": "µg/mL"}, {"measurement": "MIC", "setting": "Escherichia coli [6]", "value": "≤ 0.06", "unit": "µg/mL"}, {"measurement": "IC50", "setting": "[7]", "value": 190, "unit": "µM"}]}
{"smiles": "NC[C@@H]1CN(C[C@@H]2[C@H](NC(=O)/C(=N\\OC3(C(=O)O)CC3)c3csc(N)n3)C(=O)N2S(=O)(=O)O)C(=O)O1", "note": "(stereo in doubt)", "values": [{"measurement": "MIC", "setting": "Escherichia coli [1]", "value": 0.125, "unit": "µg/mL"}, {"measurement": "MIC", "setting": "Escherichia coli [2]", "value": 0.125, "unit": "µg/mL"}, {"measurement": "MIC", "setting": "Escherichia coli [3]", "value": 0.5, "unit": "µg/mL"}, {"measurement": "Activity", "setting": "Mus musculus", "value": "Toxic"}, {"measurement": "MIC", "setting": "Escherichia coli [4]", "value": "> 32", "unit": "µg/mL"}, {"measurement": "MIC", "setting": "Escherichia coli [5]", "value": "≤ 0.06", "unit": "µg/mL"}, {"measurement": "MIC", "setting": "Escherichia coli [6]", "value": 0.125, "unit": "µg/mL"}, {"measurement": "IC50", "setting": "[7]", "value": 1340, "unit": "µM"}]}
{"smiles": "Nc1nc(/C(=N/OC2(C(=O)O)CC2)C(=O)N[C@@H]2C(=O)N(S(=O)(=O)O)[C@@H]2CN2CCOC2=O)cs1", "note": "(stereo in doubt) [ANCREMONAM]", "values": [{"measurement": "clearance", "setting": "[8]", "value": 16, "unit": "mL/min/kg"}, {"measurement": "MIC", "setting": "Klebsiella pneumoniae [9]", "value": 1, "unit": "µg/mL"}, {"measurement": "dose excreted", "setting": "[10]", "value": 30, "unit": "%"}, {"measurement": "Vd", "setting": "[11]", "value": 0.3, "unit": "L/kg"}, {"measurement": "fraction unbound", "setting": "in vitro [12]", "value": 0.53}, {"measurement": "AUC", "setting": "[13]", "value": 19000, "unit": "ng·h/mL"}, {"measurement": "fraction unbound", "setting": "in vitro [14]", "value": 0.74}, {"measurement": "MIC", "setting": "Escherichia coli [1]", "value": 0.125, "unit": "µg/mL"}, {"measurement": "MIC", "setting": "Escherichia coli [2]", "value": 0.5, "unit": "µg/mL"}, {"measurement": "Vd", "setting": "[15]", "value": 0.3, "unit": "L/kg"}, {"measurement": "MIC", "setting": "Escherichia coli [3]", "value": 1, "unit": "µg/mL"}, {"measurement": "Stability", "setting": "[16]", "value": "Stable"}, {"measurement": "clearance", "setting": "[17]", "value": 4, "unit": "mL/min/kg"}, {"measurement": "fraction unbound", "setting": "in vitro [18]", "value": 0.87}, {"measurement": "fT>MIC", "setting": "Klebsiella pneumoniae [19]", "value": 65, "unit": "%"}, {"measurement": "Activity", "setting": "Mus musculus", "value": "Non-Toxic"}, {"measurement": "clearance", "setting": "[20]", "value": 9, "unit": "mL/min/kg"}, {"measurement": "AUC", "setting": "[21]", "value": 13000, "unit": "ng·h/mL"}, {"measurement": "dose excreted", "setting": "[22]", "value": 34, "unit": "%"}, {"measurement": "Vd", "setting": "[23]", "value": 0.2, "unit": "L/kg"}, {"measurement": "AUC", "setting": "[24]", "value": 10000, "unit": "ng·h/mL"}, {"measurement": "Activity", "setting": "Klebsiella pneumoniae [25]", "value": 1590, "unit": "mg/kg/day"}, {"measurement": "MIC", "setting": "Escherichia coli [4]", "value": 128, "unit": "µg/mL"}, {"measurement": "half-life", "setting": "[26]", "value": 18, "unit": "min"}, {"measurement": "MIC", "setting": "Escherichia coli [5]", "value": 0.125, "unit": "µg/mL"}, {"measurement": "fraction unbound", "setting": "in vitro [27]", "value": 0.76}, {"measurement": "half-life", "setting": "[28]", "value": 36, "unit": "min"}, {"measurement": "MIC", "setting": "Escherichia coli [6]", "value": 0.125, "unit": "µg/mL"}, {"measurement": "half-life", "setting": "[29]", "value": 48, "unit": "min"}, {"measurement": "IC50", "setting": "[7]", "value": "> 2400", "unit": "µM"}]}
